Experimental data as given in DBAASP.
In brackets after ≈: the same amount, converted by molar mass. Several values for one entry are separate records, joined by “and”; a condition that tells them apart may be missing. Identical values can stand only once.

Key:
Test in all cases: ≥ marks a high value that may be exact or a test limit, other limits are often not marked, values filed in µg/mL are converted to µM
[1] = tested on: Acinetobacter baumannii AB1
[2] = tested on: Acinetobacter baumannii AB2
[3] = tested on: Acinetobacter baumannii AB3
[4] = tested on: Klebsiella pneumoniae KP1
[5] = tested on: Klebsiella pneumoniae KP2
[6] = tested on: Klebsiella pneumoniae KP3
[7] = tested on: Klebsiella pneumoniae KP4
[8] = tested on: Pseudomonas aeruginosa PAO1
[9] = tested on: Pseudomonas aeruginosa TRPA 108
[10] = tested on: Pseudomonas aeruginosa TRPA 111
[11] = tested on: Staphylococcus aureus 4003
[12] = tested on: Staphylococcus aureus USA 100
[13] = tested on: Staphylococcus aureus USA 300
[14] = tested on: Escherichia coli ATCC 25922
[15] = tested on: Escherichia coli
[16] = tested on: Salmonella enterica subsp. enterica serovar Enteritidis
[17] = tested on: Salmonella sp.
[18] = tested on: Staphylococcus aureus ATCC 29213
[19] = tested on: Staphylococcus aureus ATCC 43300
[20] = tested on: Yersinia enterocolitica
[21] = tested on: Candida albicans
[22] = tested on: Pseudomonas aeruginosa ATCC 27853
[23] = tested on: Staphylococcus aureus ATCC 49476
[24] = tested on: Staphylococcus aureus MR
[25] = tested on: Escherichia coli NCTC 10418
[26] = tested on: Staphylococcus aureus NCTC 12981
[27] = tested on: Aeromonas salmonicida
[28] = tested on: Vibrio anguillarum
[29] = tested on: Acinetobacter baumannii ATCC 19606
[30] = tested on: Candida albicans ATCC 90028
[31] = tested on: Cryptococcus neoformans ATCC 208821
[32] = tested on: Klebsiella pneumoniae ATCC 700603

CC(C)[C@H](NC(=O)[C@H](Cc1c[nH]c2ccccc12)NC(=O)[C@H](CCCN=C(N)N)NC(=O)[C@H](CCCN=C(N)N)NC(=O)[C@@H](NC(=O)[C@@H](NC(=O)[C@H](CCCN=C(N)N)NC(=O)[C@@H](NC(=O)[C@@H](NC(=O)[C@H](CCCN=C(N)N)NC(=O)[C@H](CCCN=C(N)N)NC(=O)[C@@H](NC(=O)[C@H](Cc1c[nH]c2ccccc12)NC(=O)[C@H](CCCN=C(N)N)NC(=O)[C@H](CCCN=C(N)N)NC(=O)[C@@H](NC(=O)[C@H](CCCN=C(N)N)NC(=O)[C@H](CCCN=C(N)N)NC(=O)[C@@H](NC(=O)[C@H](Cc1c[nH]c2ccccc12)NC(=O)[C@H](CCCN=C(N)N)NC(=O)[C@@H](N)CCCN=C(N)N)C(C)C)C(C)C)C(C)C)C(C)C)C(C)C)C(C)C)C(C)C)C(=O)N[C@@H](CCCN=C(N)N)C(=O)N[C@@H](CCCN=C(N)N)C(=O)O [RRWVRRVRRWVRRVVRVVRRWVRR]
MIC [1]: 1.47 µM (≈ 5 µg/mL)
MIC [2]: 3.24 µM (≈ 11 µg/mL)
MIC [3]: 1.76 µM (≈ 6 µg/mL)
MIC [4]: 2.94 µM (≈ 10 µg/mL)
MIC [5]: 9.41 µM (≈ 32 µg/mL)
MIC [6]: 2.94 µM (≈ 10 µg/mL)
MIC [7]: 4.71 µM (≈ 16 µg/mL)
MIC [8]: 1.76 µM and 3.5 µM
MIC [9]: 1.18 µM (≈ 4 µg/mL)
MIC [10]: 0.882 µM (≈ 3 µg/mL)
MIC [11]: 1.47 µM (≈ 5 µg/mL)
MIC [12]: 1.76 µM (≈ 6 µg/mL)
MIC [13]: 1.76 µM and 3.2 µM

CC[C@H](C)[C@H](NC(=O)[C@H](CCCCN)NC(=O)[C@@H](N)CCCN=C(N)N)C(=O)N[C@@H](CCCN=C(N)N)C(=O)N[C@@H](CCCN=C(N)N)C(=O)N[C@@H](CCCCN)C(=O)N[C@@H](Cc1c[nH]c2ccccc12)C(=O)N[C@@H](CCCCN)C(=O)N[C@@H](CCCN=C(N)N)C(N)=O [RKIRRKWKR]
MIC [14]: > 37.7 µM
MIC [15]: > 37.7 µM
MIC [16]: ≥ 37.7 µM
MIC [17]: ≥ 37.7 µM
MIC [18]: > 37.7 µM
MIC [19]: > 37.7 µM
MIC [20]: ≥ 37.7 µM

CC[C@H](C)[C@H](NC(=O)[C@H](C)NC(=O)[C@H](CCCCN)NC(=O)CNC(=O)[C@H](C)NC(=O)[C@H](CO)NC(=O)[C@H](Cc1ccccc1)NC(=O)[C@H](CC(C)C)NC(=O)CNC(=O)CNC(=O)[C@@H](NC(=O)[C@@H](NC(=O)[C@H](Cc1cnc[nH]1)NC(=O)[C@@H](N)Cc1cnc[nH]1)[C@@H](C)CC)[C@@H](C)CC)C(=O)N[C@@H](Cc1cnc[nH]1)C(=O)N[C@@H](CCCN=C(N)N)C(=O)N[C@@H](CC(C)C)C(=O)N[C@H](C(=O)N[C@@H](CCCN=C(N)N)C(=O)N[C@@H](CCCN=C(N)N)C(=O)N[C@@H](CCCN=C(N)N)C(=O)N[C@@H](CCCN=C(N)N)C(=O)N[C@@H](CCCN=C(N)N)C(=O)O)[C@@H](C)CC [HHIIGGLFSAGKAIHRLIRRRRR]
MIC [21]: 47 µM (≈ 128 µg/mL)
MIC [22]: 188 µM (≈ 512 µg/mL)
MIC [23]: ≥ 188 µM
MIC [24]: ≥ 188 µM

NCCCC[C@H](NC(=O)[C@H](Cc1c[nH]c2ccccc12)NC(=O)[C@H](CCCCN)NC(=O)[C@@H](N)Cc1c[nH]c2ccccc12)C(=O)N[C@@H](Cc1c[nH]c2ccccc12)C(N)=O [WKWKW]
MIC [25]: ≥ 154 µM
MIC [26]: ≥ 154 µM

CC(C)[C@H](NC(=O)[C@H](CCC(=O)O)NC(=O)[C@H](C)N)C(=O)N[C@@H](C)C(=O)N1CCC[C@H]1C(=O)N[C@@H](C)C(=O)N1CCC[C@H]1C(=O)N[C@@H](C)C(=O)N[C@@H](C)C(=O)N[C@@H](C)C(=O)N[C@@H](C)C(=O)N1CCC[C@H]1C(=O)N[C@@H](C)C(=O)N[C@@H](CCCCN)C(=O)N[C@@H](C)C(=O)N1CCC[C@H]1C(=O)N[C@@H](CCCCN)C(=O)N[C@@H](CCCCN)C(=O)N[C@@H](CCCCN)C(=O)N[C@@H](C)C(=O)N[C@@H](C)C(=O)N[C@@H](C)C(=O)N[C@@H](CCCCN)C(=O)N1CCC[C@H]1C(=O)N[C@@H](CCCCN)C(=O)N[C@@H](CCCCN)C(N)=O [AEVAPAPAAAAPAKAPKKKAAAKPKK]
MIC [27]: ≥ 413 µM
MIC [28]: ≥ 413 µM

NC(=O)CC[C@H](NC(=O)[C@H](CCCN=C(N)N)NC(=O)[C@H](CCCN=C(N)N)NC(=O)[C@H](CS)NC(=O)[C@H](CCC(N)=O)NC(=O)[C@H](Cc1cnc[nH]1)NC(=O)[C@H](CO)NC(=O)[C@H](CCCN=C(N)N)NC(=O)[C@H](Cc1ccccc1)NC(=O)[C@H](Cc1cnc[nH]1)NC(=O)[C@H](CCCN=C(N)N)NC(=O)[C@H](Cc1cnc[nH]1)NC(=O)[C@H](Cc1cnc[nH]1)NC(=O)[C@@H](N)CO)C(=O)N[C@@H](CCCN=C(N)N)C(=O)N[C@@H](CO)C(=O)N[C@@H](CC(N)=O)C(=O)N[C@@H](CO)C(=O)N[C@@H](CS)C(=O)N[C@@H](CC(=O)O)C(=O)N[C@@H](CCCN=C(N)N)C(=O)O [SHHRHFRSHQCRRQRSNSCDR]
MIC [29]: > 11.9 µM
MIC [30]: 11.9 µM (≈ 32 µg/mL)
MIC [31]: 1.49 µM (≈ 4 µg/mL)
MIC [14]: > 11.9 µM
MIC [32]: > 11.9 µM
MIC [22]: > 11.9 µM
MIC [19]: > 11.9 µM
